# In patent publication US11510964B2, “Macrocyclic peptides to decrease c-Myc protein levels and reduce cancer cell growth” (University of Kansas, priority 2017, dated 2022):
# Non-standard residues stand in square brackets, D forms with d. Residues, ends and D or L forms follow the SMILES beside them.
# What was measured:
# [1] = system: siRNA-transfected PC-3 cells; assay: c-Myc knockdown, Annexin V-APC/PI apoptosis assay; assay type: cell-based, human; settings: 10 μM, 48 h
# Protocol: The extent of apoptosis was analyzed by detecting surface expression of phosphatidylserine on apoptotic cells using an Annexin V-APC/PI dual staining apoptosis detection kit I (BD Biosciences) according to the manufacturer's protocol. Following treatment of PC-3 cells with 10 μM [D-Trp]CJ-15,208 or vehicle for 24 h or 48 h, the cells were collected, washed twice with cold PBS, and resuspended in 1× binding buffer at a concentration of 1×10^6 cells/mL. Cell suspension (100 μL) was transferred to a 5 ml culture tube, and 5 μL of Annexin V-APC and 25 μL of PI (50 μg/mL) were added. The cells were incubated for 15 min at room temperature in the dark with gentle vortexing, 400 μL of 1× binding buffer was then added to each sample, and the samples were analyzed using a Beckman-Coulter MoFlo XDP flow cytometer within one hour. The number of viable, apoptotic and necrotic cells were quantified using FlowJo v10.0.7. The apoptosis fraction (%) was calculated as (number of apoptotic cells/the number of total cells observed)×100%.^38
# PC-3 cells were seeded at a density of 2×10^6 cells in 10 cm plates and grown to 75-85% confluence in EMEM supplemented with 10% FBS and penicillin/streptomycin. […] Samples were analyzed using a BD FACSCanto-II cell analyzer and quantified in FlowJo v10.2. […]
# PP2A in PC-3 cells = assay: Western blot of p-PP2A/total PP2A protein levels; assay type: cell-based, human
# Protocol: Cells were seeded in 6 well plates at a density of 1×10^5 cells/well and grown to 75% confluence. Cells were treated with [D-Trp]CJ-15,208 at the indicated concentrations. Cells were then harvested as described above, and the cell pellets lysed in RIPA buffer consisting of 10 mM Tris HCl, pH 8.0, 150 mM NaCl, 1 mM EDTA, 1% Triton-X-100, 0.1% SDS, 1% sodium deoxycholate, and a protease inhibitor cocktail #P8340 (Sigma). Cell lysates were centrifuged at 13×1000 rpm for 15 min and the supernatants collected. The total protein concentration was measured in cell lysates using the standard Bradford assay. SDS gel electrophoresis was performed using 4-20% polyacrylamide gel (BioRad). […] Signal densities of the protein bands were determined using ImageJ software (NIH) and normalized to the internal loading control (actin).
# Each experiment was performed in triplicate unless otherwise stated in the figure legend. […] The effects of compound vs. vehicle treatment on protein levels (FIG. 10) were evaluated by one-way ANOVA with Dunnett's test for multiple comparisons.
# [2] = mice, after systemic administration; cited from earlier work
# PC-3 cells = assay: Cell cycle analysis (PI, flow cytometry); assay type: cell-based, human; settings: PC-3, 10 μM
# Protocol: PC-3 cells were grown in T-75 flask to 75% confluency and treated with either 10 μM [D-Trp]CJ-15,208 in 0.5% DMSO or 0.5% DMSO as a vehicle control for 24-48 h. After treatment, the cell media was collected, the cells were washed with ice cold PBS twice, and the washes collected with the media. The cells were then trypsinized and the combined cells and media centrifuged at 1200 rpm for 5 min. The cell pellet was resuspended in PBS, the cells counted using a hematocytometer, and 1 million cells resuspended in 300 μL PBS. The cells were fixed with 700 μL ice cold 100% ethanol overnight and then centrifuged at 1200 rpm. Following removal of the ethanol, the cells were resuspended in 500 μL PBS containing 100 μg/mL RNAse and incubated for 30 min at room temperature. Propidium iodide (PI) solution (Sigma, 100 μg/mL) was added, and the solution then incubated for 30 min at room temperature in the dark. Cell cycle analysis^38 was performed using a Beckman-Coulter MoFlo XDP flow cytometer, and the cell cycle phase distribution was analyzed using FlowJo v10.1.
# Each experiment was performed in triplicate unless otherwise stated in the figure legend. GraphPad Prism 5 was used to determine IC50 values. Data represent the mean value+/−SEM. Compound vs. vehicle treated cells in the cell cycle phase and apoptosis experiments (FIGS. 5-8) were compared using the student's t-test, with a two-tailed, unpaired method, using the Prism software. The effects of compound vs. vehicle treatment on protein levels (FIG. 10) were evaluated by one-way ANOVA with Dunnett's test for multiple comparisons.
smiles,measurement,setting,value
"O=C1N[C@H](Cc2c[nH]c3ccccc23)C(=O)N[C@@H](Cc2ccccc2)C(=O)N2CCC[C@@H]2C(=O)N[C@H]1Cc1ccccc1 [[D-Trp]CJ-15,208, cyclo[Phe-D-Pro-Phe-D-Trp]] (cyclo(F[dP]F[dW]))",early apoptosis,[1]; PC-3 transfected with nontargeting siRNA,significantly increased early apoptosis
same,early apoptosis,[1]; PC-3 transfected with siRNA against c-Myc,did not significantly affect
same,total PP2A protein levels,"PP2A in PC-3 cells; PC-3, 48 h, vs. vehicle treated cells",not significantly different
same,p-PP2A levels,"PP2A in PC-3 cells; PC-3, concentrations ≥10 μM, 48 h",significantly reduced
same,blood-brain barrier penetration,[2],appear to penetrate the blood-brain barrier
same,cell population in G2 phase,PC-3 cells; 24 h,42±4%
same,mean cell distribution in S phase,PC-3 cells; 24 h,26±4%
same,mean cell population in G1 phase,PC-3 cells; 24 h,32±1%
same,cells accumulated in G2 phase compared to vehicle treated control cells,PC-3 cells; 24 h or 48 h,at least 8 fold
same,cell population in G2 phase,PC-3 cells; 48 h,58±4%
same,mean cell distribution in S phase,PC-3 cells; 48 h,12±0.6%
same,mean cell population in G1 phase,PC-3 cells; 48 h,31±6%
